Data reported in patent publication US5324502A, “Radiopharmaceuticals for imaging the heart” (priority 1992, dated 1994).
Like-named read-outs stand apart in the source and are kept apart here.

What was measured:
[1] = Octanol/water partition coefficient of radiolabeled gallium complexes; assay type: physicochemical; conditions: octanol/tris buffer, pH 7
Protocol: Octanol/water partition coefficients were measured by vortex mixing 1 mL of 1-octanol and 1 mL of isotonic Tris buffer (pH 7.0) with a 1-5 μL sample of the radiolabeled gallium complex. Following centrifugation at >1200 g for 5 minutes, the octanol and aqueous phases were sampled and counted in an automatic well counter.

[2] = rat, in vivo, iv
Protocol: The gallium-67 complexes are prepared by ligand exchange from gallium-67 chloride, employing the tris(acetylacetonato)gallium(III) complex as an intermediate. The Ga-67 acetylacetonate in ethanol is reacted with the chelating ligand or ligand precursor at elevated temperature to form rapidly the desired gallium radiopharmaceutical. […] The biodistribution of several radiopharmaceuticals was determined in rats following intravenous injection using techniques previously described (M. A. Green, Nuclear Medicine and Biology 14:59-61, 1987; E. John and M. A. Green, J. Medicinal Chemistry, 33:1764-1770, 1990).
Under ether anesthesia, 1 to 3 μCi (0.1-0.2 mL) of no-carrier-added Ga-67 compound was administered by bolus injection into the femoral vein of male Sprague-Dawley rats. The ether anesthetized rats were sacrificed by decapitation at given time intervals post-injection, organs of interest were removed, weighed, and the gallium-67 activity counted. The biodistribution was calculated as a percentage of the injected dose per gram of tissue and percentage of injected dose per organ for each sample.

Question: Which “log P” value [1] does the source give for `[67Ga+3].[O-]c1ccccc1C=NCCCNCCNCCCN=Cc1ccccc1[O-]` [Sal2 BAPEN, ^67 GaL^+ L = [bis(salicylaldimino)-N,N'-bis(3-aminopropyl)-ethylenediamine]] here?
Answer: Its value is 0.56.

Question: What about the “% injected dose in heart, 1 min” value [2] of the same molecule?
Answer: The value was 0.45 ± 0.01 % injected dose.

Question: What about the “% injected dose in heart, 2 h” value [2] of the same molecule?
Answer: The value was 0.41 ± 0.03 % injected dose.

Question: And the “% Injected Dose per Gram Tissue, Blood” value ([2]; 1 min)?
Answer: Its value is 0.30 ± 0.01.

Question: What about the “% Injected Dose per Gram Tissue, Brain” value ([2]; 1 min) of the same molecule?
Answer: Its value is 0.02 ± 0.01.

Question: What about the “% Injected Dose per Gram Tissue, Heart” value ([2]; 1 min) of the same molecule?
Answer: The value was 0.65 ± 0.02.

Question: What about the “% Injected Dose per Gram Tissue, Kidney (one)” value ([2]; 1 min) of the same molecule?
Answer: The value was 12.39 ± 0.55.

Question: What about the “% Injected Dose per Gram Tissue, Liver” value ([2]; 1 min) of the same molecule?
Answer: The value was 3.27 ± 0.44.

Question: And the “% Injected Dose per Gram Tissue, Lungs” value ([2]; 1 min)?
Answer: The value was 0.85 ± 0.09.

Question: What about the “% Injected Dose per Gram Tissue, Spleen” value ([2]; 1 min) of the same molecule?
Answer: The value was 0.27 ± 0.03.

Question: What about the Heart/Blood ([2]; 1 min) of the same molecule?
Answer: Its Heart/Blood is 2.15 ± 0.05.

Question: And the “% Injected Dose per Gram Tissue, Blood” value ([2]; 2 h)?
Answer: The value was 0.05 ± 0.01.

Question: What about the “% Injected Dose per Gram Tissue, Brain” value ([2]; 2 h) of the same molecule?
Answer: The value was 0.01 ± 0.003.

Question: And the “% Injected Dose per Gram Tissue, Heart” value ([2]; 2 h)?
Answer: The value was 0.58 ± 0.05.

Question: And the “% Injected Dose per Gram Tissue, Kidney (one)” value ([2]; 2 h)?
Answer: The value was 1.85 ± 0.30.

Question: What about the “% Injected Dose per Gram Tissue, Liver” value ([2]; 2 h) of the same molecule?
Answer: Its value is 0.64 ± 0.10.

Question: What about the “% Injected Dose per Gram Tissue, Lungs” value ([2]; 2 h) of the same molecule?
Answer: Its value is 0.24 ± 0.03.

Question: And the “% Injected Dose per Gram Tissue, Spleen” value ([2]; 2 h)?
Answer: Its value is 0.11 ± 0.01.

Question: And the Heart/Blood ([2]; 2 h)?
Answer: The Heart/Blood was 12.44 ± 0.42.

Question: What about the “% Injected Dose per Gram Tissue, Blood” value ([2]; […]) of the same molecule?
Answer: Its value is 0.07 ± 0.01.

Question: And the “% Injected Dose per Gram Tissue, Brain” value ([2]; […])?
Answer: The value was 0.01 ± 0.001.

Question: And the “% Injected Dose per Gram Tissue, Heart” value ([2]; […])?
Answer: Its value is 0.60 ± 0.03.

Question: What about the “% Injected Dose per Gram Tissue, Kidney (one)” value ([2]; […]) of the same molecule?
Answer: The value was 4.47 ± 0.62.

Question: And the “% Injected Dose per Gram Tissue, Liver” value ([2]; […])?
Answer: Its value is 1.20 ± 0.16.

Question: What about the “% Injected Dose per Gram Tissue, Lungs” value ([2]; […]) of the same molecule?
Answer: Its value is 0.29 ± 0.02.

Question: And the “% Injected Dose per Gram Tissue, Spleen” value ([2]; […])?
Answer: Its value is 0.11 ± 0.01.

Question: What about the Heart/Blood ([2]; […]) of the same molecule?
Answer: Its Heart/Blood is 8.34 ± 0.66.
